# Experimental data taken from paper PMC8312464, “Inhibition of heat shock proteins increases autophagosome formation, and reduces the expression of APP, Tau, SOD1 G93A and TDP-43” (Aging (Albany NY), 2021).
# Assays:
# HSP90 = target: T1, HSP90; assay: ATPase activity (ATP-lite luminescence) of immunoprecipitated FLAG-HSP90 on Sepharose beads; type: biochemical
# T1 construct: FLAG-tagged HSP90 expressed in GBM12 cells, immuno-precipitated by its tag
# Text: ATPase activity (ATP-lite luminescence) of immunoprecipitated FLAG-HSP90 on Sepharose beads on HSP90 | In a dose-dependent fashion AR12 inhibited the ATPase activities of HSP90, HSP70 and GRP78
# GRP78 = target: T2, GRP78 (Homo sapiens, UniProt P11021); assay: ATPase activity (ATP-lite luminescence) of immunoprecipitated GRP78 on Sepharose beads; type: biochemical
# T2 construct: gene HSPA5; GRP78 expressed from a plasmid in GBM12 cells, immuno-precipitated with an antibody to the COOH terminal portion
# T2 sequence (P11021 19-654): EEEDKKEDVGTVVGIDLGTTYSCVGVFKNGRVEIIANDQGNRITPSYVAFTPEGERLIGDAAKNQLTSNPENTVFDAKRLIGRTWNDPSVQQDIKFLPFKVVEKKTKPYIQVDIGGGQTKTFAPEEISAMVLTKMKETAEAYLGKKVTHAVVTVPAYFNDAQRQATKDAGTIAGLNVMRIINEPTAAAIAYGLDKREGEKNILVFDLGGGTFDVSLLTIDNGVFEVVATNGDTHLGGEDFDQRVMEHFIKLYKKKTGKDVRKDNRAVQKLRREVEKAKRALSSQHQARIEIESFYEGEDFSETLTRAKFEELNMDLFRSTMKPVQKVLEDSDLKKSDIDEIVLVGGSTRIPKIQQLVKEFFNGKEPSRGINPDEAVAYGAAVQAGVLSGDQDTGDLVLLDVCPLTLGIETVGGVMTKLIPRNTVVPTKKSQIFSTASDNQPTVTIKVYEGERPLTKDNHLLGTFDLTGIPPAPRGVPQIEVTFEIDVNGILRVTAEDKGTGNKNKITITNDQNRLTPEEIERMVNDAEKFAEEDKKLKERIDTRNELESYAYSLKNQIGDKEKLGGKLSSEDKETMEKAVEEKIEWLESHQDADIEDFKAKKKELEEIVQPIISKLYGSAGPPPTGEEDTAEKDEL
structure (smiles),measurement,setting,value
NCC(=O)Nc1ccc(-n2nc(C(F)(F)F)cc2-c2ccc3c(ccc4ccccc43)c2)cc1 [AR12],IC50,HSP90,~300 nM
same,IC50,GRP78,~80 nM
